This note sets out measurements from patent US5225528A, “Cyclic hexapeptide oxytocin antagonists” (priority 1990, dated 1993).

Like-named read-outs stand apart in the source and are kept apart here. Numbered stars: 1 amine (or outer) side, 2 acyl side, 3 side chain; on linkers, the order of the positions; unused ones are H or OH. Square brackets hold non-standard residues; d marks the D form. Peptide text beside a SMILES is read from it. * marks the point of attachment. NH(2-(imidazol-4-yl)ethyl) = c1ncc(CCN*)[nH]1; dPiz(1,6-dehydro) = O=C(O)[C@H]1CCC=NN1; Ethylenediamine = C(CN[*:2])N[*:1]; NMeI = CC[C@H](C)[C@H](NC)C(=O)O; X6 = O=C([C@H]1CCCNN1[*:1])[*:2]; dNMeF = CN[C@H](Cc1ccccc1)C(=O)O; Pip = O=C(O)[C@@H]1CCCCN1; dPip = O=C(O)[C@H]1CCCCN1; Dap = NC[C@H](N)C(=O)O; Dha = C=C(N)C(=O)O; OtBu = CC(C)(C)O*

One experiment concerns the target T1, uterine OT receptors (Rattus norvegicus, UniProt P70536).
T1 construct: from tissue; host or cells: uterus of DES-treated rats, crude membranes
T1 sequence (P70536 1-388): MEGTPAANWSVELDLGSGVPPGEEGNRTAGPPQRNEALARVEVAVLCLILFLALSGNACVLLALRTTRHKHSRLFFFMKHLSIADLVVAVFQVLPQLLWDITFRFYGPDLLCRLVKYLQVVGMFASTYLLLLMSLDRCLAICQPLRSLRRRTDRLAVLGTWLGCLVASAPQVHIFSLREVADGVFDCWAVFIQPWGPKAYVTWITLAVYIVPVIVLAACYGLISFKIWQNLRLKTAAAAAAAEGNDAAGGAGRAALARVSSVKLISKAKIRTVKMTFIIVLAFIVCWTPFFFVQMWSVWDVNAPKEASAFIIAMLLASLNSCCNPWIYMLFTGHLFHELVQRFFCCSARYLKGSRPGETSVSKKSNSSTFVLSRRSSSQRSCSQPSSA
Kind of experiment: [^3 H]OT binding to uterine OT receptors, crude membrane preparation of uteri from DES-treated rats. As to the method:
Competition studies were conducted at equilibrium (60 minutes; 22° C.) using 1 nM [^3 H]OT in the following assay buffer: 50 mM Tris-HCl, 5 mM MgCl2, and 0.1% BSA, pH 7.4.

A further experiment concerns the target T2, AVP-V1 sites (Rattus norvegicus, UniProt P30560).
T2 construct: crude membrane preparation of male rat liver (AVP-V1 sites); from tissue; host or cells: male rat liver, crude membranes
Kind of experiment: [^3 H]AVP binding to crude membrane preparation of male rat liver (AVP-V1 sites). The procedure: (§1) Nonspecific binding (5-10% of the total binding) was determined using 10 μM unlabeled AVP, and the binding reaction was terminated by filtration as described above for the [^3 H]OT binding assay.

For another experiment, the target named is T3, AVP-V2 sites (Rattus norvegicus, UniProt Q00788).
T3 construct: male rat liver (AVP-V1 sites) or kidney medulla (AVP-V2 sites); from tissue; host or cells: male rat kidney medulla, crude membranes
Description: [^3 H]AVP binding to crude membrane preparation of male rat kidney medulla (AVP-V2 sites). The conditions noted are these: read-out: Receptor Binding Results IC50 (nM) [^3 H]-AVP-V2. The procedure:
as §1

[1] abbreviates: rat uterus membranes, 1 nM [^3 H]OT, read-out: Receptor Binding Results IC50 (nM) [^3 H]OT.
The mark [2] stands for this setting: Receptor Binding Results IC50 (nM) [^3 H]-AVP-V1.
Setting [3] is: rat kidney medulla membranes, 2 nM [^3 H]AVP.
Where [4] appears, read: read-out: Receptor Binding Results IC50 (nM) [^3 H]-AVP-V1.

T2 sequence (P30560 whole entry): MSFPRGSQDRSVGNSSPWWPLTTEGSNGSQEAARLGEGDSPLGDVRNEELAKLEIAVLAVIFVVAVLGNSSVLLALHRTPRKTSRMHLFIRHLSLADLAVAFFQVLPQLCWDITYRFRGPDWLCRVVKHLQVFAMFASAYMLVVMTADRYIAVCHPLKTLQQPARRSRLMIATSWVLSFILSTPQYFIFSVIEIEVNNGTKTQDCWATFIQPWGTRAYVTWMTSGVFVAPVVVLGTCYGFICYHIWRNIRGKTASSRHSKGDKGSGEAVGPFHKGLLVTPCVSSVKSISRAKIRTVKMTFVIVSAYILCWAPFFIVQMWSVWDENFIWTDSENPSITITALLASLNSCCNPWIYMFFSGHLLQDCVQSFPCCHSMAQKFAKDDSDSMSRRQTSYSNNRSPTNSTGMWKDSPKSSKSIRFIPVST
T3 sequence (Q00788 whole entry): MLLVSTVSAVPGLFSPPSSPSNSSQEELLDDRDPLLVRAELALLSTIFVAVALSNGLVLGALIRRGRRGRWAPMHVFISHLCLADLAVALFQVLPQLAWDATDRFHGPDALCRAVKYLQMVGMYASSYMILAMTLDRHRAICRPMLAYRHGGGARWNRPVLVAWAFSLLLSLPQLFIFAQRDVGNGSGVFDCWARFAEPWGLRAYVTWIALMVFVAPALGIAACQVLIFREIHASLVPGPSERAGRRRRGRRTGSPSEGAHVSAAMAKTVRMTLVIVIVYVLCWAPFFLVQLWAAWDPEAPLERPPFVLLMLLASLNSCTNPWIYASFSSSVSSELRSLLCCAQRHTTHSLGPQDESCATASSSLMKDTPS

For the compound `CC[C@H](C)[C@@H]1NC(=O)[C@@H](Cc2ccccc2)NC(=O)[C@@H]2CCCN2C(=O)[C@@H](Cc2ccccc2)NC(=O)[C@H](CC(N)=O)NC(=O)[C@H]([C@@H](C)O)NC1=O` [Example 98, c-[D-Phenylalanyl-L-isoleucyl-L-threonyl-L-asparagyl-D-phenylalanyl-L-prolyl]] (cyclo(ITN[dF]P[dF])), the IC50 (commonly the concentration needed to halve the response being measured) at uterine OT receptors (setting [1]) is 7700 nM; at AVP-V1 sites (setting [2]), > 10000 nM; on AVP-V2 sites (setting [3]) it was > 10000 nM.

For `CCOc1ccc(C[C@H]2NC(=O)[C@@H]3CCCN3C(=O)[C@@H](Cc3ccccc3)NC(=O)[C@H](CC(N)=O)NC(=O)[C@@H]([C@H](C)O)NC(=O)[C@H]([C@@H](C)CC)NC2=O)cc1` [Example 99] (cyclo([dY](Et)I[dT]N[dF]P)), the IC50 at uterine OT receptors (setting [1]), on AVP-V1 sites (setting [2]) and on AVP-V2 sites (setting [3]) was > 10000 nM throughout.

On to `CC[C@H](C)[C@@H]1NC(=O)[C@@H](Cc2ccccc2)NC(=O)[C@@H]2CCCN2C(=O)[C@@H](Cc2ccccc2)NC(=O)[C@H](CC(N)=O)NC(=O)[C@@H](CCC(N)=O)NC1=O` [Example 102] (cyclo([dF]I[dQ]N[dF]P)), for which the half-inhibitory concentration (IC50) on uterine OT receptors (setting [1]), at AVP-V1 sites (setting [2]) and at AVP-V2 sites (setting [3]) was > 10000 nM each time.

For the compound `CC[C@H](C)[C@@H]1NC(=O)[C@@H](Cc2ccccc2)NC(=O)[C@@H]2CCCN2C(=O)[C@@H](Cc2ccccc2)NC(=O)[C@@H]2CCCCN2C(=O)[C@H]2CCCCN2C1=O` [Example 103, c-[D-Phenylalanyl-L-isoleucyl-D-pipecolyl-L-pipecolyl-D-phenylalanyl-L-prolyl]] (cyclo(I[dPip][Pip][dF]P[dF])), the half-inhibitory concentration (IC50) on uterine OT receptors (setting [1]) was 370 nM; on AVP-V1 sites (setting [4]), 5690 nM; on AVP-V2 sites (setting [3]) it was > 10000 nM.

As for `CC[C@H](C)[C@H]1C(=O)N2CCCC[C@@H]2C(=O)N2CCCC[C@H]2C(=O)N(C)[C@H](Cc2ccccc2)C(=O)N2CCC[C@H]2C(=O)N[C@H](Cc2ccccc2)C(=O)N1C` [Example 105, c-[D-Phenylalanyl-N-methyl-L-isoleucyl-D-pipecolyl-L-pipecolyl-N-methyl-D-phenylalanyl-L-prolyl]] (cyclo([NMeI][dPip][Pip][dNMeF]P[dF])), the IC50 at uterine OT receptors (setting [1]), on AVP-V1 sites (setting [2]) and on AVP-V2 sites (setting [3]) was > 10000 nM throughout.

For the compound `CC[C@H](C)[C@@H]1NC(=O)[C@@H](Cc2ccccc2)NC(=O)[C@@H]2CCCCN2C(=O)[C@@H](Cc2ccccc2)N(C)C(=O)[C@@H]2CCCCN2C(=O)[C@H]2CCCCN2C1=O` [Example 108, c-[D-phenylalanyl-L-isoleucyl-D-pipecolyl-L-pipecolyl-N-methyl-D-phenylalanyl-L-pipecolyl]] (cyclo(I[dPip][Pip][dNMeF][Pip][dF])), the results for the IC50 at uterine OT receptors (Receptor Binding Results IC50 (nM) [^3 H]OT), on AVP-V1 sites (setting [2]) and on AVP-V2 sites (setting [3]) were 655 nM, 10000 nM and 10000 nM, respectively.

In the case of `CC[C@H](C)[C@@H]1NC(=O)[C@@H](Cc2ccccc2)NC(=O)[C@@H]2CCCN2C(=O)[C@@H](Cc2ccccc2)N(C)C(=O)[C@@H]2CCCCN2C(=O)[C@H]2CCCNN2C1=O` [Example 111, c-[D-Phenylalanyl-L-isoleucyl-D-piperazyl-L-pipecolyl-N-methyl-D-phenylalanyl-L-prolyl]] (cyclo(I[X6][Pip][dNMeF]P[dF])), the IC50 on uterine OT receptors (setting [1]) was 111 nM; on AVP-V1 sites (setting [4]), 4200 nM; on AVP-V2 sites, 3500 nM.

As to `CC[C@H](C)[C@@H]1NC(=O)[C@@H](Cc2ccccc2)NC(=O)[C@@H]2CCCN2C(=O)[C@@H](Cc2ccccc2)N(C)C(=O)[C@@H]2CCCCN2C(=O)[C@H]2CCC=NN2C1=O` [Example 112, c-[D-Phenylalanyl-L-isoleucyl-D-Δ-piperazyl-L-pipecolyl-N-methyl-D-phenylalanyl-L-prolyl]] (cyclo(I[dPiz(1,6-dehydro)][Pip][dNMeF]P[dF])), the IC50 at uterine OT receptors (setting [1]) came out at 14.7 nM; at AVP-V1 sites (setting [4]), 3450 nM; at AVP-V2 sites, 1170 nM.

`CC[C@H](C)[C@@H]1NC(=O)[C@@H](Cc2ccccc2)NC(=O)[C@@H]2CCCN2C(=O)[C@@H](Cc2ccccc2)N(C)C(=O)[C@H](CO)NC(=O)[C@H]2CCCN2C1=O` [Example 114, c-[D-Phenylalanyl-L-isoleucyl-D-prolyl-L-seryl-N-methyl-D-phenylalanyl-L-prolyl]] (cyclo(I[dP]S[dNMeF]P[dF])): the figures for the IC50 on uterine OT receptors (setting [1]), on AVP-V1 sites (setting [2]) and on AVP-V2 sites (setting [3]) were 675 nM, > 10000 nM and > 10000 nM, respectively.

Take `CC[C@H](C)[C@@H]1NC(=O)[C@@H](Cc2ccccc2)NC(=O)[C@@H]2CCCN2C(=O)[C@@H](Cc2ccccc2)N(C)C(=O)[C@H](CC(=O)OC(C)(C)C)NC(=O)[C@H]2CCCCN2C1=O` [Example 115, c-[D-Phenylalanyl-L-isoleucyl-D-pipecolyl(O-tert-butyl)-L-aspartyl-N-methyl-D-phenylalanyl-L-prolyl]] (cyclo(D(OtBu)[dNMeF]P[dF]I[dPip])): the figures for the IC50 at uterine OT receptors (setting [1]), on AVP-V1 sites (setting [2]) and at AVP-V2 sites (setting [3]) were 460 nM, > 10000 nM and 10000 nM, respectively.

In the case of `CC[C@H](C)[C@@H]1NC(=O)[C@@H](Cc2ccccc2)NC(=O)[C@@H]2CCCN2C(=O)[C@@H](Cc2ccccc2)N(C)C(=O)[C@H](CC(=O)O)NC(=O)[C@H]2CCCCN2C1=O` [Example 116, c-[D-Phenylalanyl-L-isoleucyl-D-pipecolyl-L-aspartyl-N-methyl-D-phenylalanyl-L-prolyl]] (cyclo(D[dNMeF]P[dF]I[dPip])), the IC50 was 1450 nM at uterine OT receptors (setting [1]), > 10000 nM on AVP-V1 sites (setting [2]) and > 10000 nM at AVP-V2 sites (setting [3]).

As for `C=C1NC(=O)[C@H]2CCCN2C(=O)[C@H]([C@@H](C)CC)NC(=O)[C@@H](Cc2ccccc2)NC(=O)[C@@H]2CCCN2C(=O)[C@@H](Cc2ccccc2)N(C)C1=O` [Example 117, c-[D-Phenylalanyl-L-isoleucyl-D-prolyl-dehydroalanyl-N-methyl-D-phenylalanyl-L-prolyl]] (cyclo([Dha][dNMeF]P[dF]I[dP])), the half-maximal inhibitory concentration (IC50) on uterine OT receptors (setting [1]), at AVP-V1 sites (setting [2]) and on AVP-V2 sites (setting [3]) was > 10000 nM each time.

As to `CC[C@H](C)[C@@H]1NC(=O)[C@@H](Cc2ccccc2)NC(=O)[C@@H]2CCCN2C(=O)[C@@H](Cc2ccccc2)N(C)C(=O)[C@H](CC(N)=O)NC(=O)[C@H]2CCCCN2C1=O` [Example 118, c-[D-Phenylalanyl-L-isoleucyl-D-pipecolyl-L-asparagyl-N-methyl-D-phenylalanyl-L-prolyl]] (cyclo(I[dPip]N[dNMeF]P[dF])), the IC50 on uterine OT receptors (setting [1]) is 345 nM; on AVP-V1 sites (setting [2]) it was > 10000 nM; at AVP-V2 sites (setting [3]) it was 10000 nM.

Consider `CC[C@H](C)[C@@H]1NC(=O)[C@@H](Cc2ccccc2)NC(=O)[C@@H]2CCCN2C(=O)[C@@H](Cc2ccccc2)N(C)C(=O)[C@H](CC(=O)NCCN)NC(=O)[C@H]2CCCCN2C1=O` [Example 119, c-[D-Phenylalanyl-L-isoleucyl-D-pipecolyl-N^β -(aminoethyl)-L-asparagyl-N-methyl-D-phenylalanyl-L-prolyl]] (cyclo(D(Ethylenediamine)[dNMeF]P[dF]I[dPip])), for which the values for the half-maximal inhibitory concentration (IC50) on uterine OT receptors (setting [1]), at AVP-V1 sites (setting [4]) and at AVP-V2 sites were 260 nM, 7300 nM and 3100 nM, respectively.

With `CC[C@H](C)[C@@H]1NC(=O)[C@@H](Cc2ccccc2)NC(=O)[C@@H]2CCCN2C(=O)[C@@H](Cc2ccccc2)N(C)C(=O)[C@H](CC(=O)NCCc2c[nH]cn2)NC(=O)[C@H]2CCCCN2C1=O` [Example 120, c-[D-Phenylalanyl-L-isoleucyl-D-pipecolyl-N^β -(imidazolylethyl)-L-asparagyl-N-methyl-D-phenylalanyl-L-prolyl]] (cyclo(D(NH(2-(imidazol-4-yl)ethyl))[dNMeF]P[dF]I[dPip])), the IC50 was 120 nM at uterine OT receptors (setting [1]), 10000 nM at AVP-V1 sites (setting [2]) and 10000 nM on AVP-V2 sites (setting [3]).

As to `CC[C@H](C)[C@@H]1NC(=O)[C@@H](Cc2ccccc2)NC(=O)[C@@H]2CCCN2C(=O)[C@@H](Cc2ccccc2)N(C)C(=O)[C@H](CN)NC(=O)[C@H]2CCCCN2C1=O` [Example 121, c-[D-Phenylalanyl-L-isoleucyl-D-pipecolyl-L-2,3-diaminopropionyl-N-methyl-D-phenylalanyl-L-prolyl]] (cyclo([Dap][dNMeF]P[dF]I[dPip])), the half-maximal inhibitory concentration (IC50) is 270 nM on uterine OT receptors (setting [1]), 10000 nM at AVP-V1 sites (setting [2]) and 10000 nM on AVP-V2 sites (setting [3]).

For the compound `CCOc1ccc(C[C@H]2NC(=O)[C@@H]3CCCN3C(=O)[C@@H](Cc3ccccc3)N(C)C(=O)[C@@H]3CCCCN3C(=O)[C@H]3CCCCN3C(=O)[C@H]([C@@H](C)CC)NC2=O)cc1` [Example 122, c-[(O-Ethyl)-D-tyrosyl-L-isoleucyl-D-pipecolyl-L-pipecolyl-N-methyl-D-phenylalanyl-L-prolyl]] (cyclo(I[dPip][Pip][dNMeF]P[dY](Et))), the results for the IC50 on uterine OT receptors (setting [1]), at AVP-V1 sites (setting [2]) and on AVP-V2 sites were 130 nM, > 10000 nM and 695 nM, respectively.
